Reference: ChEMBL document CHEMBL1145338, “Novel 2-aminopyrimidine carbamates as potent and orally active inhibitors of Lck: synthesis, SAR, and in vivo antiinflammatory activity” (J Med Chem, 2006)

How the values were obtained:
[1] = biological target: Proto-oncogene tyrosine-protein kinase Src (Homo sapiens, UniProt P12931); assay: Inhibition of Src
[2] = biological target: Mitogen-activated protein kinase 14 (Homo sapiens, UniProt Q16539); assay: Inhibition of p38alpha
[3] = biological target: Tyrosine-protein kinase Lck (Homo sapiens, UniProt P06239)
Tyrosine-protein kinase Lck, sequence (P06239 whole entry): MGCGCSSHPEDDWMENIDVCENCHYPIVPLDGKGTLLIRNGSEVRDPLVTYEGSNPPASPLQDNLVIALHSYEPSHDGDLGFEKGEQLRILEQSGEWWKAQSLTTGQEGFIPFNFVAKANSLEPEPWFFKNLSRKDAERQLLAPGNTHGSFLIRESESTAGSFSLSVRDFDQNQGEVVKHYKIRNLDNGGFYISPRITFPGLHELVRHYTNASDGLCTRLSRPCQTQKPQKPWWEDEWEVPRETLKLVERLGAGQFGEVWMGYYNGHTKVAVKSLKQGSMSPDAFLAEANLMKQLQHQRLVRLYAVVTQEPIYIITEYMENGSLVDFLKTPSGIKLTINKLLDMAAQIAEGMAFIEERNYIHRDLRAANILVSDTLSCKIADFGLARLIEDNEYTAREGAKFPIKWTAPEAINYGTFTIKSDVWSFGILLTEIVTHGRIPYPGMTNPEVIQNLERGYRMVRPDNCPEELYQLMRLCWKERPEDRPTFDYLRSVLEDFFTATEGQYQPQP
Description: Inhibition of Lck in presence of 0.5 uM ATP by HTRF kinase assay

[4] = biological target: Vascular endothelial growth factor receptor 2 (Homo sapiens, UniProt P35968)
Vascular endothelial growth factor receptor 2, sequence (P35968 whole entry): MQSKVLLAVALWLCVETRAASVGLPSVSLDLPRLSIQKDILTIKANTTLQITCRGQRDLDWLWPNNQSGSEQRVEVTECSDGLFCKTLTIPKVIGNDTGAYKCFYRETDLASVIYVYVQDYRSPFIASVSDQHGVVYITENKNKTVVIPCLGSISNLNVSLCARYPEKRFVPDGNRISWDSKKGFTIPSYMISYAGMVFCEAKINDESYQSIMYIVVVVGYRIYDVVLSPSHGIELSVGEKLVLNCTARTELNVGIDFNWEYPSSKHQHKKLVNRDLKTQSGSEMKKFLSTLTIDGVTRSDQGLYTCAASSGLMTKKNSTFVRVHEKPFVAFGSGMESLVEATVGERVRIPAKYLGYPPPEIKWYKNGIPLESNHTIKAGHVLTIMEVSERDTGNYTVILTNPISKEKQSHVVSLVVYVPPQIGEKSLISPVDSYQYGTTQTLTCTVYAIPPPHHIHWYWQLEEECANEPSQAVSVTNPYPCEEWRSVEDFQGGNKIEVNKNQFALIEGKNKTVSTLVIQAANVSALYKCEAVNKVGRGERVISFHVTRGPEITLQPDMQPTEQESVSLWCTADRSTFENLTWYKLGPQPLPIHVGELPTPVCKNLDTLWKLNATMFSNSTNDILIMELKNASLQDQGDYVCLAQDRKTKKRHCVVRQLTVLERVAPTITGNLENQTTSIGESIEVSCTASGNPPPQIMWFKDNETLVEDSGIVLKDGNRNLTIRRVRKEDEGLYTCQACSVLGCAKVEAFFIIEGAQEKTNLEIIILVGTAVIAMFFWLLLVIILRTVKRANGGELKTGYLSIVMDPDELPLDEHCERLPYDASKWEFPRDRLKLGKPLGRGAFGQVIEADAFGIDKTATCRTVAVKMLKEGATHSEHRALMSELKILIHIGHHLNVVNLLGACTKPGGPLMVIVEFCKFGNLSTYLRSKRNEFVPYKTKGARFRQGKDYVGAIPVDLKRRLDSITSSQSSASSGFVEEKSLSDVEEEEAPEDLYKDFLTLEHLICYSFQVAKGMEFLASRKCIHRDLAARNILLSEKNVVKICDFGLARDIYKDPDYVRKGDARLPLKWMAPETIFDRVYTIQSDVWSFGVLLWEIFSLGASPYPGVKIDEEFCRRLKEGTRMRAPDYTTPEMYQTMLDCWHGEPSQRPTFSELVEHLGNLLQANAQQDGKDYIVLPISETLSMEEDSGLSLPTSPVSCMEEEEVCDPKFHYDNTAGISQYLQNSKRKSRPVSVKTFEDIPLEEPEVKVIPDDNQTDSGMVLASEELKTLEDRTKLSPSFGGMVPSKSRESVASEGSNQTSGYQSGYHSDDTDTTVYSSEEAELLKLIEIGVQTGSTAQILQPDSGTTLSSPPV

T-cell [5] = assay: Inhibition of anti-CD3/CD28-induced IL2 secretion in human T cells; format: functional, cell-based
T-cell [6] = assay: Inhibition of human T cell proliferation by mixed lymphocyte reaction; format: functional, cell-based
[7] = Protein binding in human plasma; format: ADME, cell-free; conditions: read-out: PPB (converted)
[8] = AUC (0-infinity) in Sprague-Dawley rat at 1 mg/kg, iv; format: ADME, organism-based; parameters: time infinity, dose 1 mg/kg, route intravenous; conditions: plasma
[9] = Clearance in Sprague-Dawley rat at 1 mg/kg, iv; format: ADME, organism-based; parameters: dose 1 mg/kg, route intravenous; conditions: in vivo
[10] = Volume of distribution in Sprague-Dawley rat at 1 mg/kg, iv; format: ADME, organism-based; parameters: dose 1 mg/kg, route intravenous; conditions: in vivo, read-out: Vss
[11] = Half life in Sprague-Dawley rat at 1 mg/kg, iv; format: ADME, organism-based; parameters: dose 1 mg/kg, route intravenous; conditions: in vivo
[12] = Cmax in Sprague-Dawley rat at 5 mg/kg, po; format: ADME, organism-based; parameters: dose 5 mg/kg, route oral; conditions: in vivo
[13] = Tmax in Sprague-Dawley rat at 5 mg/kg, po; format: ADME, organism-based; parameters: dose 5 mg/kg, route oral; conditions: in vivo
[14] = biological target: Cyclin-dependent kinase 2 (Homo sapiens, UniProt P24941); assay: Inhibition of CDK2
[15] = biological target: Protein kinase C theta type (Homo sapiens, UniProt Q04759); assay: Inhibition of PKCtheta
Protein kinase C theta type, sequence (Q04759 whole entry): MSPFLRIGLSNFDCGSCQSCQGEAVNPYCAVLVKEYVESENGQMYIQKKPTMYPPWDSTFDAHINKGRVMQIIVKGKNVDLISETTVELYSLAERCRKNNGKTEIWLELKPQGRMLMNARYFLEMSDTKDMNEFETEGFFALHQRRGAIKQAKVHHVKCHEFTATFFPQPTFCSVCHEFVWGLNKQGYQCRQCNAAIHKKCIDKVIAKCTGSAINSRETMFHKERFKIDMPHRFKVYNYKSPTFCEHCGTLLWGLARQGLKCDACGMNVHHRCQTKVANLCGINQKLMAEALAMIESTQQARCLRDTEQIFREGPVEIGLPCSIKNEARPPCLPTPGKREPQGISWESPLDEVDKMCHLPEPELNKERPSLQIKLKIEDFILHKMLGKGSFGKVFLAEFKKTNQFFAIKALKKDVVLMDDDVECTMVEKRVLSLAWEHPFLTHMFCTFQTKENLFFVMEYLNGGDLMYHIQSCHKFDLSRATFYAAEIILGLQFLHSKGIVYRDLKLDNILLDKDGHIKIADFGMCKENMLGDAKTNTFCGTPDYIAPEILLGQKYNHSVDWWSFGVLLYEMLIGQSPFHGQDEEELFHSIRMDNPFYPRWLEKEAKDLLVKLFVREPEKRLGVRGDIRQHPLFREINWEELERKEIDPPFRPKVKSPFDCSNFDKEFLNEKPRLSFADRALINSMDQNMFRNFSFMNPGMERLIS

T-cell [16] = assay: Inhibition of anti-CD3/CD28-induced T cell proliferation; format: functional, cell-based; conditions: Homo sapiens
Homo sapiens = organism: Homo sapiens; assay: Inhibition of anti-CD3/CD28-induced IL2 secretion in human whole blood T cell; format: functional
T-cell [17] = assay: Inhibition of T cell receptor zeta chain phosphorylation; format: functional, cell-based; conditions: Homo sapiens
T-cell [18] = assay: Inhibition of anti-CD3/CD28-induced IL2 secretion in T cells stimulated with phorbol myristic acid and calcium ionophore; format: functional, cell-based; conditions: Homo sapiens
Jurkat = assay: Antiproliferative activity against Jurkat cells; format: functional, cell-based; conditions: Homo sapiens
[19] = AUC (0-infinity) in Sprague-Dawley rat at 5 mg/kg, po; format: ADME, organism-based; parameters: time infinity, dose 5 mg/kg, route oral; conditions: plasma
[20] = Bioavailability in Sprague-Dawley rat at 5 mg/kg, po; format: ADME, organism-based; conditions: in vivo
Mus musculus [21] = assay: Inhibition of anti-CD3-induced IL2 production in BALB/c mouse at 10 mg/kg, po; format: functional
Mus musculus [22] = assay: Inhibition of anti-CD3-induced IL2 production in BALB/c mouse at 30 mg/kg, po; format: functional
Mus musculus [23] = assay: Inhibition of anti-CD3-induced IL2 production in BALB/c mouse at 100 mg/kg, po; format: functional
[24] = Protein binding in rat plasma; format: ADME, cell-free; conditions: read-out: PPB (converted)
[25] = biological target: Tyrosine-protein kinase SYK (Homo sapiens, UniProt P43405); assay: Inhibition of Syk
[26] = biological target: Tyrosine-protein kinase BTK (Homo sapiens, UniProt Q06187)
Tyrosine-protein kinase BTK, sequence (Q06187 whole entry): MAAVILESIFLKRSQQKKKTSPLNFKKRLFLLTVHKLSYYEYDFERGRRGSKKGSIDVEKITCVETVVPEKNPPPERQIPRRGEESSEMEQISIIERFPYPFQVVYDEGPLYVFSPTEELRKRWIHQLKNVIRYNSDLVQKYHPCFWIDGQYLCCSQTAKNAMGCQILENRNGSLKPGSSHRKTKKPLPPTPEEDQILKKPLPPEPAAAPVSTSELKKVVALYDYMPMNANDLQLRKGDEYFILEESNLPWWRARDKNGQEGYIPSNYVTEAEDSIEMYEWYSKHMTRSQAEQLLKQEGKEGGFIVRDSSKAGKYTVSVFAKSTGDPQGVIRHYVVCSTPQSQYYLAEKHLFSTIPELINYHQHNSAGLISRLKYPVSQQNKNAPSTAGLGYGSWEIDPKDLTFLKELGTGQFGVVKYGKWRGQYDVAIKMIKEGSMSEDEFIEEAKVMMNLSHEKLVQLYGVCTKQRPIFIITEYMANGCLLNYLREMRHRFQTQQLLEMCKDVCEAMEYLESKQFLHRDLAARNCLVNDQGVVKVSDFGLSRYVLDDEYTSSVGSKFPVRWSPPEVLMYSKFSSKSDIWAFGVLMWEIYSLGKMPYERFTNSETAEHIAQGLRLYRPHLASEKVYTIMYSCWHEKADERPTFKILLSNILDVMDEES

[27] = biological target: Insulin-like growth factor 1 receptor (Homo sapiens, UniProt P08069)
[28] = biological target: Tyrosine-protein kinase JAK2 (Homo sapiens, UniProt O60674)
[29] = biological target: T1, Tyrosine-protein kinase JAK3 (Homo sapiens, UniProt P52333)
T1 sequence (P52333 whole entry): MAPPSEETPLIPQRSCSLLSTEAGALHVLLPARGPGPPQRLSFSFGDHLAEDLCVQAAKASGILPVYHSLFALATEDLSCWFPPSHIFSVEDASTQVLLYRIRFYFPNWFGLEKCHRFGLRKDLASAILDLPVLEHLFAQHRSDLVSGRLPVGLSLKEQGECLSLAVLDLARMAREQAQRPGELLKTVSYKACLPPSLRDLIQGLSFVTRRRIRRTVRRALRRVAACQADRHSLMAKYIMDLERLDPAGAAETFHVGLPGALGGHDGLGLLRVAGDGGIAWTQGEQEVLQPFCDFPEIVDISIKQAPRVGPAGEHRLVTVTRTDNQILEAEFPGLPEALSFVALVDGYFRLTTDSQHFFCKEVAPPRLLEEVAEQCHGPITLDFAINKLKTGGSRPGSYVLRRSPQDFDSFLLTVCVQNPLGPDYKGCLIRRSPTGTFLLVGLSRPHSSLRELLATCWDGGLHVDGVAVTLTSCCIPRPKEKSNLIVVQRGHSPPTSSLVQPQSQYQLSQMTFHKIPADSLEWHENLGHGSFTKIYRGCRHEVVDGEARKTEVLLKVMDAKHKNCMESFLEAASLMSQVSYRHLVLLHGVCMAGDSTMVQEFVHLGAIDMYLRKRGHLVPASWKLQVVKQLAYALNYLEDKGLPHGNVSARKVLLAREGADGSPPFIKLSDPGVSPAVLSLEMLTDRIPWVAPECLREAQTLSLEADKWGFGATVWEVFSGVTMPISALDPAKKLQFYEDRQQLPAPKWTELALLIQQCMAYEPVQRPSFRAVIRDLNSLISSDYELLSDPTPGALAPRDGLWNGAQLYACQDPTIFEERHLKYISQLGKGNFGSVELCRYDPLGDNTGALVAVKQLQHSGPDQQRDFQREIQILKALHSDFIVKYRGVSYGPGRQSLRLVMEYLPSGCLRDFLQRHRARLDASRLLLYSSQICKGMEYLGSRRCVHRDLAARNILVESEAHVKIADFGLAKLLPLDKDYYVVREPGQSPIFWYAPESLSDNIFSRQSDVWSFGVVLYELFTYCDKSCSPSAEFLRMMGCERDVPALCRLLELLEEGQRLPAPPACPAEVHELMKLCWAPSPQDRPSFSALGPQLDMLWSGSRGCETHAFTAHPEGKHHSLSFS

[30] = biological target: Mitogen-activated protein kinase 10 (Homo sapiens, UniProt P53779)
Mitogen-activated protein kinase 10, sequence (P53779 whole entry): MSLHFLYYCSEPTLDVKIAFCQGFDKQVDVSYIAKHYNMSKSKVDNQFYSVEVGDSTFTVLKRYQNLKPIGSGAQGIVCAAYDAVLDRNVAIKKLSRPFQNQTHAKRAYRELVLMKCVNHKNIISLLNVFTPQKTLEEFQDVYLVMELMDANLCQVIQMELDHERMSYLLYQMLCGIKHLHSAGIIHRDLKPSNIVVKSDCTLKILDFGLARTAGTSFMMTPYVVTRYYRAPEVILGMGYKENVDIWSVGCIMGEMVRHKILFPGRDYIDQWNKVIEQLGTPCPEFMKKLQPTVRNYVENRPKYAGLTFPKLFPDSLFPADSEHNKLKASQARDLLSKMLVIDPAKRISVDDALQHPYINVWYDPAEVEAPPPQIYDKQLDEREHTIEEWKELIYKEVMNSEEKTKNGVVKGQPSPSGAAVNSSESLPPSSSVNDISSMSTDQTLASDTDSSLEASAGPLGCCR

Mitogen-activated protein kinase 14, sequence (Q16539 whole entry): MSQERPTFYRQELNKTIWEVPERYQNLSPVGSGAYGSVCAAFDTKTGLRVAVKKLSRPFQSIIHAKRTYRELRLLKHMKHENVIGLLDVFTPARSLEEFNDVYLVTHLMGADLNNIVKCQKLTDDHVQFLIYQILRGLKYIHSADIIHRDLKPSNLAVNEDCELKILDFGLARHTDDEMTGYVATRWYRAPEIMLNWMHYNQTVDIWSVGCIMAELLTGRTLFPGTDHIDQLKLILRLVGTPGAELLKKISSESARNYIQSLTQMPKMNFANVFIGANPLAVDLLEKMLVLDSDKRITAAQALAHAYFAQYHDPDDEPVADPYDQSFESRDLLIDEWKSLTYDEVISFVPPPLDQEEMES
Proto-oncogene tyrosine-protein kinase Src, sequence (P12931 2-536 limits assumed): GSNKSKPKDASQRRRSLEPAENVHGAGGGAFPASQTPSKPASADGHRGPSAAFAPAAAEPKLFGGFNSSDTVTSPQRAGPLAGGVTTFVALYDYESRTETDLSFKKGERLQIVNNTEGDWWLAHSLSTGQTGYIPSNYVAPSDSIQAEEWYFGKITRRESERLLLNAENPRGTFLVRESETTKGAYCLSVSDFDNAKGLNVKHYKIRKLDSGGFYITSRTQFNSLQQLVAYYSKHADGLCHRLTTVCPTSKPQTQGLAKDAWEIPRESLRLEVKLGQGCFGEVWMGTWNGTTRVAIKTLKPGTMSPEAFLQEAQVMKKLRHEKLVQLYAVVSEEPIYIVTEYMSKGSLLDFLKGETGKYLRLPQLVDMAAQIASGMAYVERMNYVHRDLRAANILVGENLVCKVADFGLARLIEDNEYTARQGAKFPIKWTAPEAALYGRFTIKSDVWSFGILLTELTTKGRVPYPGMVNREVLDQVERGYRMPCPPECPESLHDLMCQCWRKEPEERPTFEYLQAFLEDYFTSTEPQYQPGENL

Cc1cccc(C)c1OC(=O)N(c1ccc(-c2ccccc2)cc1)c1ccnc(Nc2ccc(N3CCN(C)CC3)cc2)n1
IC50 [1]: 98 nM | IC50 [2]: 1800 nM | IC50 [3]: 13 nM | IC50 [4]: 590 nM

COc1ccccc1N(C(=O)Oc1c(C)cccc1C)c1ccnc(Nc2ccc(N3CCN(C)CC3)cc2)n1
IC50 [1]: 4 nM | IC50 [2]: 420 nM | IC50 [3]: 1 nM | IC50 [4]: 190 nM

COc1ccc(N(C(=O)Oc2c(C)cccc2C)c2ccnc(Nc3ccc(N4CCN(C)CC4)c(F)c3)n2)c(OC)c1
IC50 [1]: 2 nM | IC50 [2]: 1000 nM | IC50 (T-cell [5]): 200 nM | IC50 [3]: 1 nM | IC50 [4]: 260 nM

COc1ccc(N(C(=O)Oc2c(C)cccc2C)c2ccnc(Nc3cc(OC)c(OCCN4CCN(C)CC4)c(OC)c3)n2)c(OC)c1
IC50 [1]: 1 nM | IC50 [2]: 180 nM | IC50 (T-cell [5]): 290 nM | IC50 [3]: 1 nM | IC50 [4]: 230 nM

COc1ccc(N(C(=O)Oc2c(C)cccc2C)c2ccnc(Nc3ccc(OCCN(C)C)cc3)n2)c(OC)c1
IC50 [1]: 4 nM | IC50 [2]: 2100 nM | IC50 (T-cell [5]): 270 nM | IC50 [3]: 1 nM | IC50 [4]: 220 nM

COc1ccc(N(C(=O)Oc2c(C)cccc2C)c2ccnc(Nc3ccc(N4CCN(C)CC4)cc3)n2)c(OC)c1
IC50 [1]: 6 nM | IC50 [2]: 1300 nM | IC50 (T-cell [5]): 1900 nM | IC50 [3]: 2 nM | IC50 [4]: 640 nM

COc1ccc(N(C(=O)Oc2c(C)cccc2C)c2ccnc(Nc3ccc(OCCCN(C)C)cc3)n2)c(OC)c1
IC50 [1]: 4 nM | IC50 [2]: 2100 nM | IC50 (T-cell [5]): 230 nM | IC50 [3]: 1 nM | IC50 [4]: 230 nM

COc1ccc(N(C(=O)Oc2c(C)cccc2C)c2ccnc(Nc3ccc(OCCCN4CCN(C)CC4)c(F)c3)n2)c(OC)c1
IC50 [1]: 5 nM | IC50 [2]: 1300 nM | IC50 (T-cell [5]): 510 nM | IC50 [3]: 1 nM | IC50 [4]: 590 nM

COc1ccc(N(C(=O)Oc2c(C)cccc2C)c2ccnc(Nc3ccc(OCCCN4CCCCC4)c(F)c3)n2)c(OC)c1
IC50 [1]: 12 nM | IC50 [2]: 6800 nM | IC50 (T-cell [5]): 860 nM | IC50 [3]: 2 nM | IC50 [4]: 620 nM

Cc1cccc(C)c1OC(=O)N(c1cccc(-c2ccccc2)c1)c1ccnc(Nc2ccc(N3CCN(C)CC3)cc2)n1
IC50 [1]: 500 nM | IC50 [2]: 8000 nM | IC50 [3]: 49 nM | IC50 [4]: 1900 nM

COc1ccc(N(C(=O)Oc2c(C)cccc2C)c2ccnc(Nc3ccc(N4CCN(C)CC4)c(OC)c3)n2)c(OC)c1
IC50 [1]: 2 nM | IC50 [2]: 440 nM | IC50 (T-cell [5]): 140 nM | IC50 [3]: 1 nM | IC50 [4]: 140 nM

COc1ccc(N(C(=O)Oc2c(C)cccc2C)c2ccnc(Nc3ccc(N4CCN(C)CC4)cc3)n2)cc1
IC50 [1]: 3 nM | IC50 [2]: 320 nM | IC50 [3]: 12 nM | IC50 [4]: 420 nM

Cc1cccc(C)c1OC(=O)N(c1ccnc(Nc2ccc(N3CCN(C)CC3)cc2)n1)c1ccc(F)cc1OC(C)C
IC50 [1]: 13 nM | IC50 [2]: 1200 nM | IC50 [3]: 1 nM | IC50 [4]: 4800 nM

COc1ccc(N(C(=O)Oc2c(C)cccc2C)c2ccnc(Nc3cc(OC)c(OCCN4CCOCC4)c(OC)c3)n2)c(OC)c1
IC50 [1]: 2 nM | IC50 [2]: 1200 nM | IC50 (T-cell [5]): 410 nM | IC50 [3]: 1 nM | IC50 [4]: 170 nM

Cc1cccc(C)c1OC(=O)N(c1ccc2ccccc2c1)c1ccnc(Nc2ccc(N3CCN(C)CC3)cc2)n1
IC50 [1]: 14 nM | IC50 [2]: 740 nM | IC50 [3]: 10 nM | IC50 [4]: 130 nM

COc1ccc(N(C(=O)Oc2c(C)cccc2C)c2ccnc(Nc3ccc(OCCCN4CCN(C)CC4)c(OC)c3)n2)c(OC)c1
IC50 [1]: 2 nM | IC50 [2]: 2300 nM | IC50 (T-cell [5]): 100 nM | IC50 [3]: 1 nM | IC50 [4]: 210 nM

COc1ccc(N(C(=O)Oc2c(C)cccc2C)c2ccnc(Nc3cc(OC)c(N4CCN(C)CC4)c(OC)c3)n2)c(OC)c1
IC50 [1]: 1 nM | IC50 [2]: 430 nM | IC50 (T-cell [6]): 590 nM | IC50 [3]: 1 nM | IC50 [4]: 170 nM

COc1ccc(N(C(=O)Oc2c(C)cccc2C)c2ccnc(Nc3cc(OC)c(OCCCN4CCN(C)CC4)c(OC)c3)n2)c(OC)c1
fraction unbound [7]: 0.013 | AUC(0-inf) [8]: 568 ng·h/mL | clearance [9]: 30.5 mL/min/kg | Vd [10]: 11.3 L/kg | half-life [11]: 276 min | Cmax [12]: 22 ng/mL | Tmax [13]: 4 h | IC50 [14]: > 40 µM | IC50 [15]: > 5 µM | IC50 (T-cell [16]): 490 nM | IC50 (Homo sapiens): 3000 nM | IC50 (T-cell [17]): 780 nM | IC50 (T-cell [18]): 1800 nM | IC50 (Jurkat): 1700 nM | IC50 [1]: 1 nM | IC50 [2]: 530 nM | IC50 (T-cell [5]): 61 nM | AUC(0-inf) [19]: 175 ng·h/mL | bioavailability [20]: 6% | inhibition in vivo at 10 mg/kg (Mus musculus [21]): 11% | inhibition in vivo at 30 mg/kg (Mus musculus [22]): 21% | inhibition in vivo at 100 mg/kg (Mus musculus [23]): 60% | fraction unbound [24]: 0.016 | IC50 [25]: 200 nM | IC50 [26]: 100 nM | IC50 [27]: > 25 µM | IC50 [28]: 240 nM | IC50 [29]: 1200 nM | IC50 [30]: > 5 µM

Cc1cccc(C)c1OC(=O)N(c1ccccc1)c1ccnc(Nc2ccc(N3CCN(C)CC3)cc2)n1
IC50 [1]: 10 nM | IC50 [2]: 160 nM | IC50 [3]: 14 nM | IC50 [4]: 190 nM
